These results are taken from ChEMBL document CHEMBL5303711, “ECBD screening data for assay EOS300108” (2023).

The data set is described as follows: Cytotoxicity activity against human HepG2 cells assessed by CellTiter-Glo luminescent cell viability assay. It is filed as toxicity, cell-based. The settings on record: HepG2 cells, read-out: IC50 relative. Also noted: assay stage confirmatory assay, source tissue liver.

Activity calls are given as the source filed them. How the calls were made is not given here. Some results are limits rather than exact numbers.

In the case of `COc1cc(/C=C/C(=O)CC(=O)/C=C/c2ccc(O)cc2)ccc1O`, the CC50 was 11.5 µM (active).

In the case of `CN(C)CCNC(=O)NC[C@H]1CC[C@@H]2[C@H](O1)c1cc(C(F)(F)F)ccc1N[C@H]2c1ccccc1`, the CC50 was 3.5 µM (active).

As for `CCCCCCCCC(=O)N[C@H](CN1CCCC1)[C@H](O)c1ccc2c(c1)OCCO2`, the CC50 was 5.1 µM (active).

Take `Cn1nc(-c2ccc(C(F)(F)F)cc2)nc2c(=O)n(C)c(=O)nc1-2`: the CC50 was 1.1 µM (active).

On to `COc1ccc2[nH]c(C(=O)c3ccccc3)cc2c1`, for which the CC50 was 0.2 µM (inactive).

Regarding `COc1ccc([N+](=O)[O-])c(S(=O)(=O)c2ccc(Cl)cc2)n1`, the CC50 is 2.2 µM (active).

As for `C[n+]1ccc(/C=C/c2c[nH]c3ccccc23)cc1`, the CC50 is 1.2 µM (active).

Turning to `O=C1Nc2ccccc2/C1=C1\Nc2ccccc2\C1=N/O`, the CC50 was 14.6 µM (inactive).

Take `CCN(Cc1cc(Nc2nc(C)cn3c(-c4cn[nH]c4)cnc23)sn1)C(C)(C)CO`: the CC50 is 1.8 µM (active).

On to `COc1cc(N2CCN(C)CC2)ccc1Nc1ncc2c(n1)N(C)c1ccccc1C(=O)N2`, for which the CC50 was 7.5 µM (active).

In the case of `CN1CCC(c2cc(-c3ccncc3)c(-c3ccc(F)cc3)[nH]2)CC1`, the CC50 was 9.2 µM (active).

With `COc1cc2c(Nc3ccc(NC(=O)c4ccccc4)cc3)ncnc2cc1OCCCN1CCOCC1`, the CC50 is 3.2 µM (active).

Regarding `CC(C)NC(=O)[C@H]1CC[C@@H](n2/c(=N/C(=O)c3ccc(F)cc3)[nH]c3ccc(CN4CCC(C(C)(C)O)CC4)cc32)CC1`, the CC50 is 0.8 µM (active).

Consider `CC(=O)N1c2ccc(-c3ccc(C(=O)O)cc3)cc2[C@H](Nc2ccc(Cl)cc2)C[C@@H]1C`, for which the CC50 is 0.9 µM (active).

As for `CCNC(=O)Nc1ccc(-c2nc3c(c(N4CCOC[C@@H]4C)n2)CCN(c2ncccn2)C3)cc1`, the CC50 was 0.2 µM (active).

In the case of `NC(=O)c1cnc(NCCc2ccc(O)c(Cl)c2)nc1NCc1ccccc1`, the CC50 was 4.2 µM (active).

For `c1cc(-c2cnn3cc(-c4ccc(N5CCNCC5)cc4)cnc23)c2cccnc2c1`, the CC50 is 0.9 µM (active).

For the compound `COc1cc(C(=O)NC2CCN(C)CC2)ccc1Nc1ncc2c(n1)N(C1CCCC1)CC(F)(F)C(=O)N2C`, the CC50 is 2.9 µM (active).

For `O=C(NCc1ccc(S(=O)(=O)c2cc(F)cc(F)c2)cc1)c1ccc2nccn2c1`, the CC50 was < 0.1 µM (active).

Regarding `CC(C)c1ccc(-c2cc(=O)c3ccccc3o2)cc1`, the CC50 was 11.1 µM (active).

In the case of `Cc1cccc(CC(=O)N2CCc3c2ccc(-c2cn(C)c4ncnc(N)c24)c3F)n1`, the CC50 was 6.7 µM (active).

Consider `c1cc(NC2CCNCC2)nc(-c2cnc3ccccn23)c1`, for which the CC50 was 4.5 µM (active).

Consider `NC1(Cc2ccc(Cl)cc2)CCN(c2ncnc3[nH]ccc23)CC1`, for which the CC50 is 6.7 µM (active).

On to `Nc1ccccc1NC(=O)CCCCCC(=O)Nc1ccccc1`, for which the CC50 is 11.7 µM (active).

For the compound `CCCCNc1ncc(C(=O)NCc2ccc(-n3ccnc3)cc2)c(N[C@H]2CC[C@H](O)CC2)n1`, the CC50 was 2.8 µM (active).

In the case of `CN(CC(=O)N(Cc1ccc(C2CCCCC2)cc1)c1ccc(C(=O)O)cc1)S(=O)(=O)c1c(F)c(F)c(F)c(F)c1F`, the CC50 was 3.4 µM (active).

`COc1cc(C(N)=O)ccc1NC(=O)[C@@H]1N[C@@H](CC(C)(C)C)[C@@]2(C(=O)Nc3cc(Cl)ccc32)[C@H]1c1cccc(Cl)c1F`: the CC50 was 5.3 µM (inactive).

As to `O=C(CCN1CCN(C(=O)OCc2cc(Cl)cc(Cl)c2)CC1)c1ccc2[nH]c(=O)oc2c1`, the CC50 is 20.6 µM (inactive).

For `COc1ccccc1-c1cc(Nc2cccc(CS(N)(=O)=O)c2)ncn1`, the CC50 was 2.5 µM (active).

In the case of `CCCCNc1ncc2c(-c3ccc(CN4CCN(C)CC4)cc3)cn([C@H]3CC[C@H](O)CC3)c2n1`, the CC50 was 1.3 µM (active).

For `O=C(Nc1cccc(C(F)(F)F)c1)Nc1cc(S(=O)(=O)NC2CC2)ccc1-c1ccsc1`, the CC50 is 10.1 µM (active).

Take `N#Cc1ccnc(Nc2cc(C3CCN(C4COC4)CC3)cc(N3CCC(F)(F)C3)n2)c1`: the CC50 is 1.9 µM (active).

Take `CN(C)C/C=C/C(=O)Nc1cccc(C(=O)Nc2ccc(Nc3nccc(-c4cccnc4)n3)cc2)c1`: the CC50 is 1 µM (active).

Consider `O=C1c2ccccc2C(=O)c2oc(-c3ccccc3)nc21`, for which the CC50 was 2.6 µM (active).

As for `COc1cc2c(cc1OC)CN(CCc1ccc(NC(=O)c3cc(OC)c(OC)cc3NC(=O)c3cnc4ccccc4c3)cc1)CC2`, the CC50 is 27.3 µM (inactive).

Take `CCS(=O)(=O)c1ccc(CC(=O)Nc2cc(Cl)c(-c3ccccc3OC(F)(F)F)c(Cl)c2)cc1`: the CC50 is 12.7 µM (inactive).

`CCNC(=O)c1[nH]nc(-c2cc(Cl)c(O)cc2O)c1-c1ccc(OC)cc1`: the CC50 was 1 µM (active).

Turning to `COc1cccc2c(NCc3ccccc3)nc(-n3c(N)nc4ccccc43)nc12`, the CC50 was 9.6 µM (active).

Consider `N#Cc1cc2cc(CN3CCC(Nc4ncnc5sc(CC(F)(F)F)cc45)CC3)ccc2[nH]1`, for which the CC50 is 2.2 µM (active).

As for `Nc1ncc(-c2ccnc(Nc3ccncc3)n2)c(CC2CC2)n1`, the CC50 was 7 µM (active).

Regarding `Cc1c(-c2ccc(N3CCc4cccc(C(=O)Nc5nc6ccccc6s5)c4C3)nc2C(=O)O)cnn1CC12CC3CC(CC(C3)C1)C2`, the CC50 is 1 µM (active).

For the compound `CC(C)c1c2cc(-c3ccnc(N[C@H]4CC[C@H](NC5CCOCC5)CC4)n3)ccc2nn1C`, the CC50 was 0.1 µM (active).

Regarding `CN(C)CCCOc1ccc(-c2ccc3ncc4c(c3c2)n(C2CCOCC2)c(=O)n4C)cn1`, the CC50 was 7.4 µM (active).

As for `CCOc1cc(N2CCC(O)CC2)ccc1Nc1ncc2c(n1)N(C1CCCC1)CCC(=O)N2C`, the CC50 was 4.3 µM (active).

Turning to `C=CC(=O)Nc1ccc(CN2C(=O)N(c3cc(OC)cc(OC)c3)Cc3cnc(Nc4ccc(N5CCN(C)CC5)cc4)nc32)cc1`, the CC50 is 3.7 µM (active).

Take `Nc1nc(N)c2c(OCC3CCN(Cc4c(Cl)cccc4Cl)CC3)cccc2n1`: the CC50 is 4 µM (active).

On to `CN1CCN(Cc2ccc(NC(=O)c3n[nH]cc3Nc3ncnc4[nH]ccc34)cc2)CC1`, for which the CC50 is 1.1 µM (active).

Turning to `COc1nc(OCc2cccc(-c3ccccc3)c2C)ccc1CNCCNC(C)=O`, the CC50 was 4 µM (active).

As to `Cc1cc(N2C[C@@H](C)N[C@@H](C)C2)ncc1-c1ccc(-c2nc3c(ccn3C)c(=O)[nH]2)cc1`, the CC50 is 1.8 µM (active).

Consider `CN(C)C/C=C/C(=O)Nc1ccc(C(=O)N2CCC[C@@H](Nc3ncc(Cl)c(-c4c[nH]c5ccccc45)n3)C2)cc1`, for which the CC50 was 0.1 µM (active).

With `CC(C)(C)c1cc(NC(=O)Nc2ccc(Oc3ccnc4[nH]c(=O)cnc34)cc2F)n(-c2ccccc2)n1`, the CC50 is 0.4 µM (active).

On to `N#Cc1ccc(O[C@@H]2c3ccccc3C[C@H]2N2CCC[C@@H](N)C2)c(Cl)c1`, for which the CC50 was 4.9 µM (active).

`Cc1sc2c(c1C)C(c1ccc(Cl)cc1)=N[C@@H](CC(=O)NCCCCCCCCNC(=O)COc1cccc3c1C(=O)N(C1CCC(=O)NC1=O)C3=O)c1nnc(C)n1-2` (some centres undefined): the CC50 was < 0.1 µM (active).

For the compound `N[C@H]1CC[C@H](Nc2cc(-c3cccc(NCc4cccc(F)c4)n3)c(Cl)cn2)CC1`, the CC50 is 0.1 µM (active).

With `COc1ccc(-c2c[nH]c3nccc(-c4ccsc4)c23)c(OC)c1`, the CC50 was 7.9 µM (active).

For `COc1cc(N2CCN(C)CC2)ccc1Nc1ncc2c(n1)N(C1CCC1)C(=O)N(c1c(C)cccc1C)C2`, the CC50 is 3.3 µM (active).

On to `CNc1nc(Nc2ccc(C(=O)N3CCOCC3)cc2OC)nc2[nH]cc(Cl)c12`, for which the CC50 is 5 µM (active).

For `COC(=O)[C@H](CC(C)C)NC(=O)c1ccc(NC[C@@H](N)CS)cc1-c1cccc2ccccc12`, the CC50 is 50 µM (inactive).

As for `CN(c1ccccc1CNc1nc(Nc2ccc3c(c2)CC(=O)N3)ncc1C(F)(F)F)S(C)(=O)=O`, the CC50 is 1 µM (active).

Consider `N#Cc1cnc2c(Cl)cc(NCc3cn(CCN4CCCCCC4)nn3)cc2c1Nc1ccc(F)c(Cl)c1`, for which the CC50 is 11.6 µM (active).

On to `O=[N+]([O-])c1ccc(Sc2cccc[n+]2[O-])c2nonc12`, for which the CC50 was 0.6 µM (active).

Regarding `COc1ccc2c(c1)CN(C)CC2c1ccc(Cl)c(Cl)c1` (centres undefined), the CC50 was 12.6 µM (active).

On to `CN1CCN([C@H]2CC[C@H](n3cc(-c4ccc(Oc5ccccc5)cc4)c4c(N)ncnc43)CC2)CC1`, for which the CC50 is 1.6 µM (active).

`CC(C)=CCC[C@]1(C)C=Cc2c(O)c3c(c(CC=C(C)C)c2O1)O[C@]12C(=C[C@@H]4C[C@H]1C(C)(C)O[C@@]2(C/C=C(/C)C(=O)O)C4=O)C3=O`: the CC50 is 0.7 µM (active).

Turning to `CC(=O)c1cnc2ccc(-c3cc(Cl)c(O)c(Cl)c3)nc2c1N[C@H]1CC[C@H](CN(C)C)CC1`, the CC50 was 0.1 µM (active).

Turning to `N#Cc1c(C2CCNCC2)cc(-c2c(O)cccc2OCC2CC2)nc1N`, the CC50 is 5.6 µM (active).

Turning to `C=CCNc1c(O)cc2c(O)c1C[C@@H](C)C[C@H](OC)[C@H](O)[C@@H](C)/C=C(/C)[C@H](OC(N)=O)[C@@H](OC)/C=C\C=C(\C)C(=O)N2`, the CC50 is 0.1 µM (active).

Regarding `COc1cc2nc(-c3cc(F)ccc3O)nc(N[C@@H]3CNC[C@H]3C(C)(C)O)c2cc1OC`, the CC50 is 1.6 µM (active).

As to `C[C@]12CC/C(=N\OCCN)C[C@@H]1C(=O)C[C@@H]1[C@@H]2CC[C@]2(C)C(=O)CC[C@@H]12`, the CC50 was 10.5 µM (active).

For `CCCOc1cc(OCCCCN(C)C)cc(Oc2cc3c(cc2NS(=O)(=O)c2ccc(OC)c(OC)c2)n(C)c(=O)n3C)c1`, the CC50 is 7.8 µM (active).

For `Cc1cc(-c2cc(O)ccc2Cl)cc2nnc(Nc3ccc(OCCN4CCCC4)cc3)nc12`, the CC50 is 1.4 µM (active).

As to `CO[C@H]1/C=C\C=C(\C)C(=O)NC2=CC(=O)C(NCCN(C)C)=C(C[C@@H](C)C[C@H](OC)[C@H](O)[C@@H](C)/C=C(/C)[C@@H]1OC(N)=O)C2=O`, the CC50 is < 0.1 µM (active).

With `Cc1nc2c(=O)n(C)c(=O)nc-2n(C)n1`, the CC50 was 0.7 µM (active).

For the compound `CN(C)Cc1ccc(-c2nc3cccc4c3n2CCNC4=O)cc1`, the CC50 is 10.9 µM (active).
